Biological target: T1, human mGlu5a receptor (Homo sapiens, UniProt P41594)
T1 construct: expressed in transfected cells
Assay: Intracellular Ca2+ mobilization assay (mGlu5 PAM)
Type: cell-based
Settings: for EC50: HEK-293 cells stably transfected with human mGlu5a, L-glutamate added at EC20 after pre-incubation with test compound, read-out: EC50 (nM) mGlu5PAM; for Emax: maximal response in % of the maximal stimulatory effect obtained with saturating concentrations of L-glutamate, read-out: Eff. (%)
Method: A monoclonal HEK-293 cell line stably transfected with a cDNA encoding for the human mGlu5a receptor was generated; for the work with mGlu5 Positive Allosteric Modulators (PAMs), a cell line with low receptor expression levels and low constitutive receptor activity was selected to allow the differentiation of agonistic versus PAM activity. Cells were cultured according to standard protocols (Freshney, 2000) in Dulbecco's Modified Eagle Medium with high glucose supplemented with 1 mM glutamine, 10% (vol/vol) heat-inactivated bovine calf serum, Penicillin/Streptomycin, 50 μg/ml hygromycin and 15 μg/ml blasticidin (all cell culture reagents and antibiotics from Invitrogen, Basel, Switzerland).
About 24 hrs before an experiment, 5×10^4 cells/well were seeded in poly-D-lysine coated, black/clear-bottomed 96-well plates. The cells were loaded with 2.5 μM Fluo-4AM in loading buffer (1×HBSS, 20 mM HEPES) for 1 hr at 37° C. and washed five times with loading buffer. The cells were transferred into a Functional Drug Screening System 7000 (Hamamatsu, Paris, France), and 11 half logarithmic serial dilutions of test compound at 37° C. were added and the cells were incubated for 10-30 min, with on-line recording of fluorescence. Following this pre-incubation step, the agonist L-glutamate was added to the cells at a concentration corresponding to EC20 (typically around 80 μM) with on-line recording of fluorescence; in order to account for day-to-day variations in the responsiveness of cells, the EC20 of glutamate was determined immediately ahead of each experiment by recording of a full dose-response curve of glutamate.
Responses were measured as peak increase in fluorescence minus basal (i.e. fluorescence without addition of L-glutamate), normalized to the maximal stimulatory effect obtained with saturating concentrations of L-glutamate. Graphs were plotted with the % maximal stimulatory using XLfit, a curve fitting program that iteratively plots the data using Levenburg Marquardt algorithm. The single site competition analysis equation used was y=A+((B−A)/(1+((x/C)D))), where y is the % maximal stimulatory effect, A is the minimum y, B is the maximum y, C is the EC50, x is the log 10 of the concentration of the competing compound and D is the slope of the curve (the Hill Coefficient). From these curves the EC50 (concentration at which half maximal stimulation was achieved), the Hill coefficient as well as the maximal response in % of the maximal stimulatory effect obtained with saturating concentrations of L-glutamate were calculated.
A depression of the signal observed after addition of the EC20 concentration of L-glutamate was indicative of an inhibitory activity of the test compound.

T1 sequence (P41594 21-1180 isoform P41594-2 limits assumed): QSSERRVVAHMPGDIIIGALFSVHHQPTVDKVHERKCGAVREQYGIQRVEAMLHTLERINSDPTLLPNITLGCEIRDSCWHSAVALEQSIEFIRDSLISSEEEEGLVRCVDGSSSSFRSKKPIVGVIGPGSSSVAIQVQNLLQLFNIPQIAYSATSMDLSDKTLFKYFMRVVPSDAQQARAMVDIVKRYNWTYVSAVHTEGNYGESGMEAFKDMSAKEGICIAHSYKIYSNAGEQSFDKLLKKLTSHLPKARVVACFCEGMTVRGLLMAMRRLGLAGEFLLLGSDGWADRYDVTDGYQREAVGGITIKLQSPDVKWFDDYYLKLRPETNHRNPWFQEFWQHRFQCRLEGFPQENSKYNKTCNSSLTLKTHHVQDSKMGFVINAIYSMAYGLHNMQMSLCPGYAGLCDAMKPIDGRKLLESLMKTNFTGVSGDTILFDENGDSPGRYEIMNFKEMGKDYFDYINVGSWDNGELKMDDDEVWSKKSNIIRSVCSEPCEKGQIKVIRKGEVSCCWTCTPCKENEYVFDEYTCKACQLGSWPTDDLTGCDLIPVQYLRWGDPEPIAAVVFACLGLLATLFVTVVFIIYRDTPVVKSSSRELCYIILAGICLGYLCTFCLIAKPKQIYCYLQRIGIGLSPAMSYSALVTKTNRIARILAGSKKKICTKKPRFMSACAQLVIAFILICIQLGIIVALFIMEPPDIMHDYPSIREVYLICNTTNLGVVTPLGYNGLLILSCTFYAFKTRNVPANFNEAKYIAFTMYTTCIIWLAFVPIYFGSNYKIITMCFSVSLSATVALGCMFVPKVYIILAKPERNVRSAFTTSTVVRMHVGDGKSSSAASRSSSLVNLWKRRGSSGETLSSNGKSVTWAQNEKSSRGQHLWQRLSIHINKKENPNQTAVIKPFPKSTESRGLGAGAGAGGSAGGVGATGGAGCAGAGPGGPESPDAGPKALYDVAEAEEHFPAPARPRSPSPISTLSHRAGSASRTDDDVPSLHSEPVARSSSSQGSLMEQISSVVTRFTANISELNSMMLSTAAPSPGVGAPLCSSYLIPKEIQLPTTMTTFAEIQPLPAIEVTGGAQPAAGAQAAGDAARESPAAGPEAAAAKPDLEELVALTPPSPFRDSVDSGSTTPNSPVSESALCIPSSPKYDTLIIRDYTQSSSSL

SMILES | EC50 [nM] | Emax [%]
CC1(C)CC(=O)N(c2ccc(C#Cc3cccc(F)c3)nc2)N1 [Example 15, 2-[6-(3-Fluoro-phenylethynyl)-pyridin-3-yl]-5,5-dimethyl-pyrazolidin-3-one] | 68 | 38
CC1(C)CC(=O)N(c2ccc(C#Cc3cc(F)ccc3F)nc2)N1 [Example 16, 2-[6-(2,5-Difluoro-phenylethynyl)-pyridin-3-yl]-5,5-dimethyl-pyrazolidin-3-one] | 40 | 41
CC1(C)CC(=O)N(c2ccc(C#Cc3ccccc3)nc2)C1 [Example 1, 4,4-Dimethyl-1-(6-phenylethynyl-pyridin-3-yl)-pyrrolidin-2-one] | 49 | 75
CN1C(=O)N(c2ccc(C#Cc3ccc(F)cc3)nc2)CC1(C)C [Example 4, 1-[6-(4-Fluoro-phenylethynyl)-pyridin-3-yl]-3,4,4-trimethyl-imidazolidin-2-one] | 50 | 44
CC1(C)CCN(c2ccc(C#Cc3ccccc3)nc2)C(=O)O1 [Example 2, 6,6-Dimethyl-3-(6-phenylethynyl-pyridin-3-yl)-[1,3]oxazinan-2-one] | 96 | 85
CN1C(=O)N(c2ccc(C#Cc3cccnc3)nc2)CC1(C)C [Example 6, 3,4,4-Trimethyl-1-(6-pyridin-3-ylethynyl-pyridin-3-yl)-imidazolidin-2-one] | 241 | 36
CN1N(c2ccc(C#Cc3cc(F)ccc3F)nc2)C(=O)CC1(C)C [Example 14, 2-[6-(2,5-Difluoro-phenylethynyl)-pyridin-3-yl]-1,5,5-trimethyl-pyrazolidin-3-one] | 53 | 57
CCN1C(=O)N(c2cnc(C#Cc3ccccc3)nc2)CC1(C)C [Example 11, 3-Ethyl-4,4-dimethyl-1-(2-phenylethynyl-pyrimidin-5-yl)-imidazolidin-2-one] | 79 | 52
CN1N(c2ccc(C#Cc3ccccc3)nc2)C(=O)CC1(C)C [Example 12, 1,5,5-Trimethyl-2-(6-phenylethynyl-pyridin-3-yl)-pyrazolidin-3-one] | 40 | 66
CC1(C)CC(=O)N(c2ccc(C#Cc3ccccc3)nc2)N1 [Example 8, 5,5-Dimethyl-2-(6-phenylethynyl-pyridin-3-yl)-pyrazolidin-3-one] | 62 | 56

Further molecules by falling EC50, results first:

EC50 [nM] | Emax [%] | SMILES
39 | 62 | CC1(C)CC(=O)N(c2ccc(C#Cc3cccc(F)c3)nc2)C1 [Example 7, 1-[6-(3-Fluoro-phenylethynyl)-pyridin-3-yl]-4,4-dimethyl-pyrrolidin-2-one]
38 | 63 | CN1N(c2ccc(C#Cc3cccc(F)c3)nc2)C(=O)CC1(C)C [Example 13, 2-[6-(3-Fluoro-phenylethynyl)-pyridin-3-yl]-1,5,5-trimethyl-pyrazolidin-3-one]
36 | 39 | CC1(C)CC(=O)N(c2cnc(C#Cc3ccccc3)nc2)C1 [Example 9]
19 | 42 | CN1C(=O)N(c2ccc(C#Cc3cccc(F)c3)nc2)CC1(C)C [Example 5, 1-[6-(3-Fluoro-phenylethynyl)-pyridin-3-yl]-3,4,4-trimethyl-imidazolidin-2-one]
15 | 45 | CN1C(=O)N(c2ccc(C#Cc3ccccc3)nc2)CC1(C)C [Example 3, 3,4,4-Trimethyl-1-(6-phenylethynyl-pyridin-3-yl)-imidazolidin-2-one]
